Where a SMILES comes first, the peptide text is derived from it. [ ]: non-standard residue; d: D form. Dmt = Cc1cc(O)cc(C)c1C[C@H](N)C(=O)O
System: LUVs containing 20% TOCL or 20% POPG
Experiment: ANS fluorescence reporter of surface potential of model membranes
Conditions: increasing [peptide]/[lipid]eff, 20% TOCL or 20% POPG LUVs
Method: Figure 3. SS-31 binding and surface electrostatics. A, binding isotherms. Peptide was titrated with LUVs of the indicated composition (20% TOCL, [SS-31] = 7.5 μM and 20% POPG, [SS-31] = 3.8 μM) at 30-nmol total lipid increments in the presence of different concentrations of added KCl. Values shown are means ± S.D. (error bars) (n = 3), and lines show data fits based on Equation S3. […] B and C, effect of SS-31 binding on surface charge. Measurements of ζ (B) and ANS fluorescence (C) are shown as a function of [SS-31]/[lipid]^eff for membranes containing 20% TOCL and 20% POPG as indicated. Values shown are means ± S.D. (error bars) (n = 3).
To continue this analysis, we determined the relationship between SS-31 binding and surface electrostatics by two complementary approaches. […] As an independent technique, we measured the effect of SS-31 on surface electrostatics using 1-anilinonaphthalene-8-sulfonic acid (ANS), a fluorescent reporter whose binding to anionic bilayers increases as the magnitude of the ψs is reduced, measured as an increase in probe emission intensity ([42]) (Fig. 3C and Fig. S9D). […]
Steady-state fluorescence measurements were performed with a Fluorolog 3-22 spectrofluorometer (HORIBA Jobin-Yvon) equipped with photon-counting electronics, double-grating excitation and emission monochromators, automated Glan–Thompson polarizers, and a 450-watt xenon lamp. […]

Cc1cc(O)cc(C)c1C[C@H](NC(=O)[C@H](N)CCCNC(=N)N)C(=O)N[C@@H](CCCCN)C(=O)N[C@@H](Cc1ccccc1)C(N)=O [SS-31, D-Arg-2′6′-dimethyl-Tyr-Lys-Phe-NH2] (H-[dR][Dmt]KF-NH2)
effect on ANS-detected surface potential (ψs) of anionic model membranes: saturable ANS-detected reduction in the ψs
